Data published in patent publication US8795650B2, “Derivation of unlimited quantities of neutrophils or monocyte/dendritic cells” (The Regents of the University of California, priority 2004, dated 2014).

Test system: SCF Hoxb8-ER progenitors
Conditions: SCF medium supplemented with the cytokine
Excerpt: Cells were photographed 6 days after differentiation was initiated by removal of estradiol. […] Distribution of mature cell types is indicated below each column, as measured at the end of the 6 day differentiation.

Row | Substance | impact on neutrophil-committed differentiation | progenitors maturing as macrophages (6 day differentiation) [%] | expansion during differentiation (estradiol removed) [fold]
1 | Erythropoietin | no impact |  | 
2 | GM-CSF |  | 16 | 830
